Key:
[1] = biological target: T1, HCV NS5B RdRp genotype 1b (Hepatitis C virus genotype 1b, UniProt Q9WMX2); experiment: HCV NS5B RdRp enzyme assay (preincubation protocol); format: biochemical
T1 construct: The protein was expressed with an 18 amino acid C-terminal truncation to enhance the solubility; made in house; host or cells: E. coli BL21 (DE3)
Procedure: HCV NS5B RdRp cloning, expression, and purification. The cDNA encoding the NS5B protein of HCV, genotype 1b, was cloned into the pET21a expression vector. The protein was expressed with an 18 amino acid C-terminal truncation to enhance the solubility. The E. coli competent cell line BL21 (DE3) was used for expression of the protein. Cultures were grown at 37° C. for ˜4 hours until the cultures reached an optical density of 2.0 at 600 nm. The cultures were cooled to 20° C. and induced with 1 mM IPTG. Fresh ampicillin was added to a final concentration of 50 μg/ml and the cells were grown overnight at 20° C.
Cell pellets (3 L) were lysed for purification to yield 15-24 mgs of purified NS5B. The lysis buffer consisted of 20 mM Tris-HCl, pH 7.4, 500 mM NaCl, 0.5% triton X-100, 1 mM DTT, 1 mM EDTA, 20% glycerol, 0.5 mg/ml lysozyme, 10 mM MgCl2, 15 ug/ml deoxyribonuclease I, and Complete TM protease inhibitor tablets (Roche). After addition of the lysis buffer, frozen cell pellets were resuspended using a tissue homogenizer. To reduce the viscosity of the sample, aliquots of the lysate were sonicated on ice using a microtip attached to a Branson sonicator. The sonicated lysate was centrifuged at 100,000×g for 1 hr at 4° C. and filtered through a 0.2 μm filter unit (Corning).
The protein was purified using three sequential chromatography steps: Heparin sepharose CL-6B, polyU sepharose 4B, and Hitrap SP sepharose (Pharmacia). The chromatography buffers were identical to the lysis buffer but contained no lysozyme, deoxyribonuclease I, MgCl2 or protease inhibitor and the NaCl concentration of the buffer was adjusted according to the requirements for charging the protein onto the column. Each column was eluted with a NaCl gradient which varied in length from 5-50 column volumes depending on the column type. After the final chromatography step, the resulting purity of the enzyme is >90% based on SDS-PAGE analysis. The enzyme was aliquoted and stored at −80° C.
Standard HCV NS5B RdRp enzyme assay. HCV RdRp genotype 1b assays were run in a final volume of 60 μl in 96 well plates (Costar 3912). The assay buffer is composed of 20 mM Hepes, pH 7.5, 2.5 mM KCl, 2.5 mM MgCl2, 1 mM DTT, 1.6 U RNAse inhibitor (Promega N2515), 0.1 mg/ml BSA (Promega R3961), and 2% glycerol. All compounds were serially diluted (3-fold) in DMSO and diluted further in water such that the final concentration of DMSO in the assay was 2%. HCV RdRp genotype 1b enzyme was used at a final concentration of 28 nM. A polyA template was used at 6 nM, and a biotinylated oligo-dT12 primer was used at 180 nM final concentration. Template was obtained commercially (Amersham 27-4110). Biotinylated primer was prepared by Sigma Genosys. 3H-UTP was used at 0.6 μCi (0.29 μM total UTP). Reactions were initiated by the addition of enzyme, incubated at 30° C. for 60 min, and stopped by adding 25 μl of 50 mM EDTA containing SPA beads (4 μg/μl, Amersham RPNQ 0007). Plates were read on a Packard Top Count NXT after >1 hr incubation at room temperature.
Modified HCV NS5B RdRp enzyme assay. A modified enzyme assay was performed essentially as described for the standard enzyme assay except for the following: The biotinylated oligo dT12 primer was precaptured on streptavidin-coated SPA beads by mixing primer and beads in assay buffer and incubating at room temperature for one hour. Unbound primer was removed after centrifugation. The primer-bound beads were resuspended in 20 mM Hepes buffer, pH 7.5 and used in the assay at final concentrations of 20 nM primer and 0.67 μg/μl beads. Order of addition in the assay: enzyme (14 nM) was added to diluted compound followed by the addition of a mixture of template (0.2 nM), 3H-UTP (0.6 μCi, 0.29 μM), and primer-bound beads, to initiate the reaction; concentrations given are final. Reactions were allowed to proceed for 4 hours at 30° C.
IC50 values for compounds were determined using seven different [I]. […]

HCV replicon cells = experiment: HCV replicon FRET assay; format: cell-based; conditions: Hepatitis C virus
Excerpt: FRET Assay Preparation. To perform the HCV FRET screening assay, 96-well cell culture plates were used. The FRET peptide (Anaspec, Inc.) (Taliani et al., Anal. Biochem. 1996, 240, 60-67) contains a fluorescence donor, EDANS, near one end of the peptide and an acceptor, DABCYL, near the other end. The fluorescence of the peptide is quenched by […] resonance energy transfer (RET) between the donor and the acceptor, but as the NS3 protease cleaves the peptide the products are released from RET quenching and the fluorescence of the donor becomes apparent. The assay reagent was made as follows: 5× cell Luciferase cell culture lysis reagent from Promega (#E153A) diluted to 1× with dH2O, NaCl added to 150 mM final, the FRET peptide diluted to 20 uM final from a 2 mM stock.
To prepare plates, HCV replicon cells, with or without a Renilla luciferase reporter gene, were trypsinized and placed into each well of a 96-well plate with titrated test compounds added in columns 3 through 12; columns 1 and 2 contained a control compound (HCV protease inhibitor), and the bottom row contained cells without compound. The plates were then placed in a CO2 incubator at 37° C.
Assays. Subsequent to addition of the test compounds described above (FRET Assay Preparation), at various times the plate was removed and Alamar blue solution (Trek Diagnostics, #00-100) was added per well as a measure of cellular toxicity. After reading in a Cytoflour 4000 instrument (PE Biosystems), plates were rinsed with PBS and then used for FRET assay by the addition of 30 ul of the FRET peptide assay reagent described above (FRET Assay Preparation) per well. The plate was then placed into the Cytoflour 4000 instrument which had been set to 340 excite/490 emission, automatic mode for 20 cycles and the plate read in a kinetic mode. Typically, the signal to noise using an endpoint analysis after the reads was at least three-fold. Alternatively, after Alamar blue reading, plates were rinsed with PBS, 50 ul of DMEM (high glucose) without phenol red was added and plates were then used for luciferase assay using the Promega Dual-Glo Luciferase Assay System.
Compound analysis was determined by quantification of the relative HCV replicon inhibition and the relative cytotoxicity values. To calculate cytoxicity values, the average Alamar Blue fluorescence signals from the control wells were set as 100% non-toxic. The individual signals in each of the compound test wells were then divided by the average control signal and multiplied by 100% to determine […]. To calculate the HCV replicon inhibition values, an average background value was obtained from the two wells containing the highest amount of HCV protease inhibitor at the end of the assay period. These numbers were similar to those obtained from naïve Huh-7 cells.
The background numbers were then subtracted from the average signal obtained from the control wells and this number was used as 100% activity. The individual signals in each of the compound test wells were then divided by the averaged control values after background subtraction and multiplied by 100% to determine percent activity. EC50 values for a protease inhibitor titration were calculated as the concentration which caused a 50% reduction in FRET or luciferase activity. The two numbers generated for the compound plate, percent cytotoxicity and percent activity were used to determine compounds of interest for further analysis.

T1 sequence (Q9WMX2 2420-2992): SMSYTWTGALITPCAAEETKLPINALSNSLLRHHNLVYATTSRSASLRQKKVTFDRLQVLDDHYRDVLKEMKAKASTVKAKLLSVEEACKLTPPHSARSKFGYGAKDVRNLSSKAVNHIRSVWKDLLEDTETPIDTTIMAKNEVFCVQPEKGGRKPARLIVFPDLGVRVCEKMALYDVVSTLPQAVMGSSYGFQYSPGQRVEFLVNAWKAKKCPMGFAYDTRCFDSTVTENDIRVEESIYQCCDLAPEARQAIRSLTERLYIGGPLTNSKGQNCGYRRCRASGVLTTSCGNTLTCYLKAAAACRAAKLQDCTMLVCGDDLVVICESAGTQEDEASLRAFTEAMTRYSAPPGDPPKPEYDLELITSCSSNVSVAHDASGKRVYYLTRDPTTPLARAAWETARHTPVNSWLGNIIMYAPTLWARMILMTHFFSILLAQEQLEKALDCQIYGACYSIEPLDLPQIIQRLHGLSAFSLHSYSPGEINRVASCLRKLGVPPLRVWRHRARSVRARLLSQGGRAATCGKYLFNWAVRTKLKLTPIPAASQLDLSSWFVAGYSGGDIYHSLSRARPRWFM

Compound	IC50 [1] [nM]	EC50 (HCV replicon cells) [nM]
O=C(O)c1ccc2c(C3CCCCC3)c(-c3ccccc3)n3c2c1CCCC3	> 1000	> 1000
O=C(O)/C=C/c1ccc(NC(=O)C2(NC(=O)c3ccc4c(C5CCCCC5)c(-c5ccccc5)n5c4c3CCC5C(=O)N3CCOCC3)CCCC2)cc1 (stereo not drawn)	30 to 1000	1000 to 10000
O=C(O)c1ccc2c(C3CCCCC3)c(-c3ccccc3)n3c2c1OCC3	30 to 1000	1000 to 10000
CN(C)S(=O)(=O)NC(=O)c1ccc2c(C3CCCCC3)c(-c3ccccc3)n3c2c1CCC3C(=O)N1CCOCC1 (stereo not drawn)	1000 to 10000	1000 to 10000
COc1ccc(-c2c(C3CCCCC3)c3ccc(C(=O)NC4(C(=O)Nc5ccc(C=CC(=O)O)cc5)CCCC4)c4c3n2CCO4)cc1	30 to 1000	30 to 1000
O=C(NS(=O)(=O)C1CC1)c1ccc2c(C3CCCCC3)c(-c3ccccc3)n3c2c1CCC3C(=O)N1CCOCC1 (stereo not drawn)	1000 to 10000	> 10000
COC(=O)c1ccc2c(C3CCCCC3)c(-c3ccccc3)n3c2c1CCC3C(=O)N1CCOCC1 (stereo not drawn)	> 1000	> 120
COC(=O)c1ccc2c(C3CCCCC3)c(-c3ccccc3)n3c2c1CCC3C(=O)O (stereo not drawn)	> 1000	> 120
COC(=O)c1ccc2c(C3CCCCC3)c(-c3ccccc3)n3c2c1C=CCC3	> 10000	> 120
C[C@@H]1CN(C(=O)C2CCc3c(C(=O)O)ccc4c(C5CCCCC5)c(-c5ccccc5)n2c34)C[C@H](C)O1 (stereo partly drawn)	> 1000	1000 to 10000
O=C(O)c1ccc2c(C3CCCCC3)c(-c3ccccc3)n3c2c1C=CCC3	> 1000	> 1000
CCOC(=O)/C=C/c1ccc(NC(=O)C2(NC(=O)c3ccc4c(C5CCCCC5)c(-c5ccccc5)n5c4c3OCC5)CCCC2)cc1	30 to 1000	> 1000
COC(=O)c1ccc2c(C3CCCCC3)c(-c3ccccc3)n3c2c1CCC3C(=O)OC (stereo not drawn)	> 10000	> 1000
COC(=O)c1ccc2c(C3CCCCC3)c(-c3ccccc3)n3c2c1OCC3	1000 to 10000	> 120
COC(=O)c1ccc2c(C3CCCCC3)c(-c3ccccc3)n3c2c1CCC3	> 10000	> 120
COc1ccc(-c2c(C3CCCCC3)c3ccc(C(=O)O)c4c3n2CCO4)cc1	30 to 1000	1000 to 10000
O=C(O)c1ccc2c(C3CCCCC3)c(-c3ccccc3)n3c2c1CCC3C(=O)O (stereo not drawn)	> 1000	> 10000
CN(C)S(=O)(=O)NC(=O)c1ccc2c(C3CCCCC3)c(-c3ccccc3)n3c2c1OCC3	1000 to 10000	1000 to 10000
CCOC(=O)/C=C/c1ccc(NC(=O)C2(NC(=O)c3ccc4c(C5CCCCC5)c(-c5ccc(OC)cc5)n5c4c3OCC5)CCCC2)cc1	30 to 1000	> 1000
O=C(O)c1ccc2c(C3CCCCC3)c(-c3ccccc3)n3c2c1CCC3C(=O)N1CCOCC1 (stereo not drawn)	30 to 1000	30 to 1000
CCOC(=O)/C=C/c1ccc(NC(=O)C2(NC(=O)c3ccc4c(C5CCCCC5)c(-c5ccccc5)n5c4c3CCC5C(=O)N3CCOCC3)CCCC2)cc1 (stereo not drawn)	1000 to 10000	30 to 1000
COC(=O)c1ccc2c(C3CCCCC3)c(-c3ccccc3)n3c2c1OC(C(=O)OC)C3 (stereo not drawn)	> 1000	> 1000
O=C(O)/C=C/c1ccc(NC(=O)C2(NC(=O)c3ccc4c(C5CCCCC5)c(-c5ccccc5)n5c4c3OCC5)CCCC2)cc1	30 to 1000	30 to 1000
O=C(O)/C=C\c1ccc(NC(=O)C2(NC(=O)c3ccc4c(C5CCCCC5)c(-c5ccccc5)n5c4c3OCC5)CCCC2)cc1	30 to 1000	30 to 1000
